Test results: a melting point compilation (Tetko et al.; mined from patent text by program, amines drawn as free bases though some values may be those of a salt)

| SMILES | melting point |
| --- | --- |
| O=C(O)Cc1cccc(Oc2cccc(Cl)c2Cl)c1[N+](=O)[O-] | 178 to 183 °C |
| CN1CCCC1=NC(=O)Nc1c(Cl)cc(Cl)cc1Cl | 160 to 162 °C |
| O=S(=O)(c1ccc(F)cc1)c1c[nH]c2ccc(Br)cc12 | 163 to 164 °C |
| CCOC(=O)Cn1c(CC)nc2nc3cc(Cl)ccc3nc21 | 174 to 175 °C |
| CCN1C(=O)C(NC(=O)C(F)(F)F)CCc2c1ccc(Nc1ncc(Cl)c(N[C@@H]3CCCC[C@H]3NS(C)(=O)=O)n1)c2OC (stereo not given in full) | 160 to 162 °C |
| CC(C)(C)OC(=O)Nc1ccc(C#Cc2ccccn2)cc1N | 178 °C |
| CN(C)Cc1cc(C(C)(C)C)cc(C(C)(C)C)c1O | 54 to 56 °C |
| Cc1cc(Nc2ccc(O)cc2)c2[nH]ncc2n1 | 174 to 176 °C |
| Oc1cccc(-c2nc3n(n2)CCc2ccccc2-3)c1 | 201 to 202 °C |
| COc1cc(C=c2[nH]c(=O)c(=Cc3ccc(OCc4ccccc4)cn3)[nH]c2=O)cc(OC)c1 | 237 to 239 °C |
| CCCOc1ccc(/C=C/C(=O)OC(C)(C)C)cc1-c1nc2c(c(C)nn2CCC)c(=O)[nH]1 | 181 to 182 °C |
| Cc1cc(Cl)ccc1N=CN(C)SN(Cc1ccccc1)Cc1ccccc1 | 97 to 99 °C |
| CC(O)Cc1cccc(S(N)(=O)=O)c1 (stereo not given) | 149 to 150 °C |
| COc1ccccc1N(CN1C(=O)CSC1=O)C(=O)CCl | 188 to 191 °C |
| CC(C)(C)OC(=O)NC1CCCCc2cc(OCC3CCCCC3)c(Br)cc21 (stereo not given) | 142 to 144 °C |
| COc1cc(C(=O)O)ccc1CN1CCOc2ccc(NC(=O)CC3CCCC3)cc21 | 224 to 225 °C |
| O=[N+]([O-])c1cccc(S(=O)(=O)NCC2CC2)c1 | 91 °C |
| c1cncc(-c2ccnc3nc(N4CCNCC4)nn23)c1 | 156 to 158 °C |
| O=C(c1cccnc1-c1ccncc1)N1CCC(O)(Cc2ccccc2)CC1 | 150 °C |
| c1ccc(OCCSCc2nnc(-c3ccc(OCc4cccnc4)cc3)o2)cc1 | 111 to 112 °C |

| SMILES | melting point |
| --- | --- |
| CCCCC1OC(=O)c2cc(NC(N)=S)ccc21 (stereo not given) | 183 to 185 °C |
| COc1ccc(C(=O)[C@H]2CC=CC[C@H]2C(=O)O)cc1OC (relative stereo) | 110 to 112 °C |
| CC12C=CC(=O)C=C1CCC1C3CC(OCCOC4CCCCO4)C(O)(C(=O)CCl)C3(C)CC(O)C12F (stereo not given) | 168 to 170 °C |
| CN1CC(NCc2ccccc2)=Nc2ccc(Cl)cc2C1=O | 158 to 160 °C |
| C=C(C)c1ccc(CNC(=O)N2CCN(c3ncnc4cc(OC)c(OC)cc34)CC2)cc1 | 123 to 124 °C |
| O=C(Oc1ccccc1)c1cc(O)c(O)c(O)c1 | 190 to 191 °C |
| Cc1cc(C(=O)N(C)C)ccc1-c1ccc(C(=O)O)cc1 | 190 to 192 °C |
| O=C(O)c1ccc(OCC(O)CO)cc1O (stereo not given) | 151 to 153 °C |
| CCc1nnc(-c2cccc(N(C)C)c2)n1-c1ccc(OC)cc1 | 170 °C |
| O=C(OCc1ccccc1)C1CCCc2[nH]c3ccccc3c21 (stereo not given) | 108 to 112 °C |
| CC(=Cc1ccccc1)C(C#N)=NOS(C)(=O)=O | 105 to 107 °C |
| Cc1cccc(-c2nc(N)sc2-c2ccnc(-c3ccc(OCc4cn(C)cn4)cc3)c2)n1 | 226 to 228 °C |
| Nc1ccc(-c2ccc(-c3ccc(N)cc3Cl)o2)c(Cl)c1 | 192 to 193 °C |
| O=C(CCc1ccccn1)Nc1cc(N2CC(c3ccccc3)OC2=O)ccn1 (stereo not given) | 169 to 171 °C |
| COc1ccc(C(=O)Nc2ccc(F)c(F)c2)cc1NCc1cccnc1 | 148 to 149 °C |
| CC(c1ccc(-c2ccccc2)c(F)c1)c1nc(CC#N)no1 (stereo not given) | 111 to 112 °C |
| CN(C)C(=Cc1ccccc1[N+](=O)[O-])C(=O)CN1C(=O)c2ccccc2C1=O | 230 to 233 °C |
| CCN(C(=O)OC)c1c(C(=O)c2cnoc2C2CC2)ccc(Cl)c1Cl | 76 to 78 °C |
| CCNC(=O)n1nc(Oc2ccc([N+](=O)[O-])c(OCC)c2)cc1C | 110 to 112 °C |
| CCOC(=O)N1C(=O)N(C(=O)OCC)C2(C1=O)C(=O)N(Cc1ccc(Cl)c(Cl)c1)c1ccccc12 (stereo not given) | 180 to 182 °C |

| SMILES | melting point |
| --- | --- |
| CCCNS(=O)(=O)c1nc2ccc(OCC)cc2s1 | 112 to 113 °C |
| CCCc1nn(C)c2c(=O)[nH]c(Cc3ccc(NC(=O)/C=C/OCC)cc3)nc12 | 241 to 243 °C |
| CS(=O)(=O)N(CCI)N(S(C)(=O)=O)S(C)(=O)=O | 136 to 138 °C |
| O=C(c1ccccc1)c1cccc2c1SCC2C(=O)O (stereo not given) | 153 to 156 °C |
| CC(=O)C(Cl)=NNc1ccc(C)cc1 | 141 to 143 °C |
| CC1(C)CC(=O)NC2=C1c1ccc(Cl)cc1CC2 | 213 °C |
| Cc1ccc2c(c1)C(=O)c1ccc(C#N)cc1S2(=O)=O | 290 °C |
| Cc1nc2c(N)nc3ccccc3c2n1CCCCNC(=O)C1CCCCC1 | 192 to 193 °C |
| O=C(O)Cc1ccc(C(NC(=O)c2ccccc2)C(=O)O)cc1 (stereo not given) | 180 to 220 °C |
| N#CC(C(=O)Nc1cccc(C(F)(F)F)c1)C(=O)c1ccc[nH]1 (stereo not given) | 210 to 212 °C |
| CN(C)CCc1c[nH]c2ccc(CCC(=O)O)cc12 | 195 to 200 °C |
| Cc1c(OC(F)F)ccnc1CSc1nc2ccc(OC(F)F)cc2[nH]1 | 181 to 182 °C |
| FC(F)c1nc2ccccc2n1-c1nc(Nc2cccnn2)nc(N2CCOCC2)n1 | 271 to 273 °C |
| CCCn1c(=O)c2[nH]c(/C=C/c3ccc(OC)c(C)c3C)nc2n(CCC)c1=O | 271 °C |
| O=C(CCl)n1ccc2cc(F)ccc21 | 236 to 237 °C |
| CC(C)c1nc(COCc2ccccc2)n(CC(C)(C)O)c1Sc1cc(Cl)cc(Cl)c1 | 181 to 182 °C |
| CC1(C)C(c2ccc(S(C)(=O)=O)cc2)=C(c2ccccc2)C1O (stereo not given) | 79 to 81 °C |
| Cn1cc(C(=O)NCc2ccc(Cl)cc2)c(=O)c2cc(CCCCCO)oc21 | 151 to 152 °C |
| CCCCCCc1cc2c(s1)-n1c(C)nnc1CN=C2c1ccc(C)cc1 | 74 to 76 °C |

The remaining lines, values ahead:

| melting point | SMILES |
| --- | --- |
| 221 to 223 °C | C[C@H]1CN(c2c(F)c(N)c3c(=O)c(C(=O)O)cn(C4CC4)c3c2F)C[C@H]1CN (relative stereo) |
| 202 to 208 °C | COc1ccc(-c2c(C)ccn2N2C(=O)c3ccccc3C2=O)c(Cl)c1 |
| 127 to 128 °C | CCOC(=O)CCCn1c(C(=O)NCc2nnc(C)n2-c2sc(CC)cc2C(=O)c2ccccc2Cl)cc2cc(F)ccc21 |
| 189 to 192 °C | CC(O)(CF)C(=O)Nc1ccc(S(=O)(=O)c2ccccc2)cc1 (stereo not given) |
| 167 to 168 °C | O=C1c2cc(F)cc(F)c2OC[C@H]1NC(=O)C(F)(F)F |
| 140 to 141 °C | CCOC(=O)C(=O)Nc1ccc(NC(=O)C(=O)OCC)c(C#N)c1 |
| 98 to 101 °C | OC(CCN1CCC(c2ccccc2)CC1)c1ccc(Cc2ccc(Cl)cc2)cc1 (stereo not given) |
| 169 to 172 °C | Cc1c(C(=O)NC2CCN(Cc3ccccc3)CC2)c2cc(F)ccc2n1C |
| 105 to 106 °C | CC(C)n1cnc2c(Nc3ccncc3)nc(F)nc21 |
| 94 to 95 °C | CSc1cccc(-c2ccccc2NC(=N)N(C)C)c1 |
| 111 °C | CC(=O)Oc1ccc(-c2cnc(C)nc2Cl)cc1OC(C)=O |
| 216 to 220 °C | O=C(NC(=O)c1c(F)cccc1F)Nc1cc(Cl)c(S(=O)C(F)(F)C(F)F)cc1Cl (stereo not given) |
| 170 to 171 °C | CCOC(=O)c1nc2ccc(Cl)nn2c1C |
| 212 to 214 °C | CCc1c(Cc2c[nH]c3ccccc23)[nH]c(=O)c(CC(C)C)[n+]1[O-] |
| 93 to 96 °C | COc1cc(C(=O)COC(C)=O)ccc1OCCCCl |
| 152 to 154 °C | Cc1c(SCCSCCn2c([N+](=O)[O-])cnc2C)ccnc1CNc1cnc2ccccc2c1 |
| 159 °C | COc1ccc(CNC(=O)n2cc(F)c(=O)[nH]c2=O)c(OC)c1OC |
| 75.5 to 76.5 °C | CCCN(C(=O)n1ccnc1)c1ccccc1Cl |
| 113 to 114 °C | COc1ccc(C(=O)C=Cc2cccnc2)cc1 |
| 54 to 57 °C | CSc1cc(Oc2cccc(C(F)(F)F)c2)nc(C(=O)O)c1 |
| 74 to 75 °C | COc1cc(NC(C)=O)c(Cl)cc1C(=O)CCCCN1CCCCC1 |

| melting point | SMILES |
| --- | --- |
| 120 to 121 °C | Cc1ccc(-c2cnc(-c3cc(C(F)(F)F)cc(C(F)(F)F)c3)s2)s1 |
| 163 to 165 °C | COC(=O)c1ccccc1S(=O)(=O)NC(=O)c1nc(OC)cc(OC)n1 |
| 209 to 211 °C | Fc1ccc2c(c1)C1=NCCN1C(Cl)=N2 |
| 121 to 122 °C | O=C(NNCCO)c1ccc(NCc2cc(Br)ccc2OCc2ccccc2)cc1 |
| 193 to 194 °C | Cc1nccn1-c1ccc(NC(=O)CCc2cnoc2-c2ccc(Cl)cc2)cn1 |
| 154 °C | O=[N+]([O-])c1c(NCCO)cc(Cl)cc1NCCO |
| 142 to 143 °C | CC(=O)Nc1cc(N)c(Cl)cc1F |
| > 260 °C | CCCCC1=C(C(=O)O)Nc2ccc(C(=O)O)cc2C1O (stereo not given) |
| 153 to 157 °C | COc1cc(CCNC(=O)[C@@H](NS(C)(=O)=O)C(C)C)ccc1OCc1cccc2ccccc12 |
| 130 to 132 °C | CCOC(=O)c1cnn2c1c(Cl)nc1c(C)nn(C)c12 |
| 192 °C | O=C(O)CCCc1cc2cc(Cl)ccc2n1S(=O)(=O)c1ccccn1 |
| 168 to 169 °C | N#Cc1c(C(F)(F)F)nn(-c2c(Cl)cc(S(=O)(=O)C(F)(F)F)cc2Cl)c1[N+](=O)[O-] |
| 196 to 200 °C | O=C(/C=C/c1ccc2cc[nH]c2c1)CC(=O)/C=C/c1cc(O)ccc1Br |
| 185 to 187 °C | CCOCc1nc2c(N)nc(C)c(C)c2n1CCNS(C)(=O)=O |
| 184 to 185 °C | COC(=O)[C@H](O)[C@@H](NC(=O)c1ccccc1)c1ccccc1 |
| 113 to 114 °C | CC/C(=C\C=C\C(O)(C(F)(F)F)C(F)(F)F)c1ccc(COc2ccc(CO)c(CO)c2)s1 |
| 168 to 170 °C | Cc1ccc(C(Cl)=CC(=O)NC(Cc2ccccc2)C(=O)O)cc1 (stereo not given) |
| 134 °C | Cc1ccc(S(=O)(=O)N2CCCC2c2ccc(F)cc2)cc1Cl (racemic) |
| 178 to 180 °C | Nc1nc(C2CCN(C(=O)Nc3ccccc3)CC2)c2ccccc2n1 |
| 179 °C | CCCCCCCCCCCCCCCCCCCCCC(=O)Nc1ccc(NC(=O)NS(=O)(=O)c2ccc3ccccc3c2)cc1 |
